Results on 17 compounds are retold here after patent publication US20230165867A1 (CHENGDU BAIYU PHARMACEUTICAL CO., LTD., priority 2020, published 2023).

Read-outs that look alike come from different tables or passages of the source. Some results are limits rather than exact numbers.

Series [1] can be described thus: Metabolic stability in liver microsomes. Type of series: in vitro ADME, human. The note with it: 0.5 µM test substance, 0.5 mg/mL microsomes, NADPH and UDPGA, 37° C.; for half-life at 0.5 µM: human, human liver microsomes, read-out: T½(min), stability in human liver microsomes. As for the experimental part:
Liver microsomes (purchased from Reed Liver Disease Research (Shanghai) Co., Ltd., product: human liver microsomes (NJT)); NADPH (purchased from Roche, Lot: 40939); UDPGA; the compounds of the present invention (test substances).
• (1) A mixed working solution of testosterone (0.5 µM) and 7-hydroxycoumarin (0.5 µM) was prepared. • (2) A mixed solution of NADPH (1 mM) and UDPGA (1 mM) was prepared, and prewarmed at 37° C. in a water bath shaker before use. • (3) Liver microsomes were thawed and diluted with a buffer. • (4) A preparation of a test substance (0.5 µM) and a solution of liver microsomes (0.5 mg/mL) were added to each well of an incubation plate. • (5) Three experimental groups were set and samples were added. Test group: the test substance was incubated with liver microsomes for 0 min, 30 min, 60 min, and 120 min in the presence of the coenzyme NADPH and UDPGA; Positive control group: testosterone (0.5 µM) and 7-hydroxycoumarin (0.5 µM) were incubated with microsomes for 0 min and 120 min in the presence of the coenzyme NADPH and UDPGA; Negative control group: the test substance was incubated with microsomes for 0 and 120 min without any coenzyme. • (6) All samples were incubated at 37° C., and pre-cooled methanol was added at each termination time (0, 15, 30, 45, 60 min, 120 min) to terminate the reaction, and the time was recorded. • (7) All samples were mixed well and centrifuged at 4000 rpm for 10 min. The supernatant was taken and measured by LC-MS/MS for the amount of the test substance remaining in the samples. Data analysis was carried out as follows: T½=0.693 /k, Clint = (0.693/T½) × (1 /(microsomal protein) × Scaling Factors), Note: k is the slope of the logarithm of the remaining amounts of compound versus time.
For orientation: Liver microsomes are a subcellular fraction often used to study metabolism.

The next series concerns the target T1, DNA-PK kinase (Homo sapiens, UniProt P78527).
T1 construct: purchased Promega V4107
Description: Inhibition assay of DNA-PK kinase (Promega kit, ADP-Glo chemiluminescence). It counts as biochemical. The following applies: 50 µM ATP, 37° C., 60 min; read-out: IC50 (nM), inhibitory activity on DNA-PK kinase. As for the experimental part:
The inhibitory activity of the compounds on DNA-PK kinase was measured by using a DNA-PK kinase assay kit (purchased from Promega, Cat.#: V4107, Lot: 0000366495). The results were quantified by chemiluminescence, and the detailed experimental protocol was as follows: • i. An ADP-fluorescence standard curve over a range of concentrations was plotted according to the kit instructions; • ii. […] The mixtures were mixed well, centrifuged (1000 rpm, 30 s), and incubated at 37° C. for 60 min; • iv. 5 µL of ADP-Glo™ Reagent was added to stop the reaction, which was then mixed well, centrifuged (1000 rpm, 30 s), and incubated at room temperature for 40 min; • v. 10 µL Kinase Detection Reagent was added, and the mixture was mixed well by shaking, centrifuged (1000 rpm, 30 s), and incubated at room temperature for 30 min; • vi. The […] was measured by using a microplate reader (Thermo fisher, Varioskan LUX).
Background: In ADP-Glo the light output rises with the ADP produced.

A short description of series [2]: Pharmacokinetic assay in ICR mice (i.v. and p.o.). Type of series: in vivo. The note with it: mouse, plasma, male ICR mice; for half-life: read-out: T½ (converted); for bioavailability: po 10 mg/kg vs iv 1 mg/kg. Here is the method:
ICR mice were purchased from Beijing Vital River Laboratory Animal Technology Co., Ltd.
3.2 Experimental procedure • (1) Healthy male ICR mice (18-22 g) were prepared, with 18 mice for each compound. The mice were divided into 2 groups (an i.v. group and a p.o. group), with 9 mice per group. 3 mice were picked for blood collection at each time point. • (2) After the animals were fasted overnight (with free access to water), the compound of the present invention dissolved (or suspended) in a solvent of 5% DMSO and 95% 30% HP-β-CD (v:v) was administered via the tail vein (i.v., 1 mg/kg) or intragastrically (p.o., 10 mg/kg), respectively. • (3) For the i.v. group, 0.1 mL blood was collected from the submandibular vein 5 min, 15 min, 0.5 h, 1 h, 2 h, 4 h, 8 h, 12 h, and 24 h after administration, respectively, anticoagulated with EDTA-K2, and centrifuged at 4° C. for 5 min to obtain plasma, which was stored at -20° C. until testing. (4) For the p.o. group, 0.1 mL blood was collected from the submandibular vein before administration and 15 min, 0.5 h, 1 h, 2 h, 4 h, 6 h, 8 h, 12 h, and 24 h after administration, and treated in the same manner as that for the intravenous group. • (5) The concentration of the compound of the present invention in plasma was measured by LC/MS/MS. • (6) Calculation and fitting were performed with Analyst 1.6 from AB Company, and the results are shown in Table 3.

As to `[2H]C([2H])([2H])c1cc(C#N)ccc1Nc1ncc2c(n1)n(C1CCOCC1)c(=O)n2C` (single isomer, unassigned) [Compound 25, 3-(Methyl-d3)-4-((7-methyl-8-oxo-9-(tetrahydro-2H-pyran-4-yl)-8,9-dihydro-7H-purin-2-yl)amino)benzonitrile], in series [1], the half-life at 0.5 µM is over 120 min.
Still for that read-out and setting: the same measure for `Cc1cc(C(N)=O)c(F)cc1Nc1ncc2c(n1)n(C1CCC(C)(C#N)CC1)c(=O)n2C` (single isomer, unassigned) [Compound 92-1, 4-((9-(4-cyano-4-methylcyclohexyl)-7-methyl-8-oxo-8,9-dihydro-7H-purin-2-yl)amino)-2-fluoro-5-methylbenzamide]: over 120 min.
In the case of `Cc1cc(C(N)=O)c(F)cc1Nc1ncc2c(n1)n(C1CCC(C)(C#N)CC1)c(=O)n2C` (single isomer, unassigned) [Compound 92-2, 4-((9-(4-cyano-4-methylcyclohexyl)-7-methyl-8-oxo-8,9-dihydro-7H-purin-2-yl)amino)-2-fluoro-5-methylbenzamide], the “T½(min), stability in human liver microsomes” value in series [1] is over 120 min.
Take `CCn1c(=O)n(C2CCOCC2)c2nc(Nc3cc(F)c(C(N)=O)cc3C)ncc21` [Compound 62, 4-((7-ethyl-8-oxo-9-(tetrahydro-2H-pyran-4-yl)-8,9-dihydro-7H-purin-2-yl)amino)-2-fluoro-5-methylbenzamide]: the IC50 at DNA-PK kinase stood at 4.17 nM. Also, in series [2] (iv, 1 mg/kg), the AUC was determined as 1190 ng·h/mL and the half-life was 1.69 h. In addition, the bioavailability in series [2] turned out to be 44.8%. In series [2] (po, 10 mg/kg), the AUC was 4720 ng·h/mL, the peak level (Cmax) was 1850 ng/mL and the half-life was 3.01 h.
With `Cc1cc(C(N)=O)c(F)cc1Nc1ncc2c(n1)n([C@H]1CC[C@@](C)(O)CC1)c(=O)n2C` [Compound 72, 2-Fluoro-4-((9-(cis-4-hydroxy-4-methylcyclohexyl)-7-methyl-8-oxo-8,9-dihydro-7H-purin-2-yl)amino)-5-methylbenzamide], in series [1], the half-life at 0.5 µM is over 120 min. Moreover, in series [2] (iv, 1 mg/kg), the area under the curve (AUC) was found to be 1700 ng·h/mL and the half-life was 2.92 h. Further, in series [2], the bioavailability is 166%. Further, in series [2] (po, 10 mg/kg), the AUC came to 28200 ng·h/mL, the Cmax worked out at 4680 ng/mL and the half-life was 2.58 h.
As to `Cc1cc(C(N)=O)c(F)cc1Nc1ncc2c(n1)n([C@H]1CC[C@](C)(O)CC1)c(=O)n2C` [Compound 73, 2-Fluoro-4-((9-(trans-4-hydroxy-4-methylcyclohexyl)-7-methyl-8-oxo-8,9-dihydro-7H-purin-2-yl)amino)-5-methylbenzamide], the half-life at 0.5 µM in series [1] was over 120 min. Moreover, in series [2] (iv, 1 mg/kg), the exposure (AUC) was 239 ng·h/mL and the half-life was 1.24 h. Also, in series [2], the bioavailability turned out to be 56%. Also, in series [2] (po, 10 mg/kg), the AUC was 1270 ng·h/mL, the concentration peaked (Cmax) at 484 ng/mL and the half-life was 2.5 h.
With `Cc1cc(C#N)ccc1Nc1ncc2c(n1)n([C@H]1CC[C@@H](C#N)CC1)c(=O)n2C` [Compound 78, 4-((9-(cis-4-cyanocyclohexyl)-7-methyl-8-oxo-8,9-dihydro-7H-purin-2-yl)amino)-3-methylbenzonitrile], the IC50 on DNA-PK kinase turned out to be 0.038 nM. Further, in series [2] (iv, 1 mg/kg), the exposure (AUC) amounted to 216 ng·h/mL and the half-life is 1.17 h. Moreover, the bioavailability in series [2] worked out at 65.2%. In series [2] (po, 10 mg/kg), the AUC is 1200 ng·h/mL, the Cmax was found to be 446 ng/mL and the half-life was 3.5 h.
`Cc1cc(C(N)=O)c(F)cc1Nc1ncc2c(n1)n(C1CCC(CO)OC1)c(=O)n2C` (centres unmarked) [Compound 96, 2-Fluoro-4-((9-(6-(hydroxymethyl)tetrahydro-2H-pyran-3-yl)-7-methyl-8-oxo-8,9-dihydro-7H-purin-2-yl)amino)-5-methylbenzamide]: the IC50 on DNA-PK kinase is 3.89 nM.
For `Cc1cc(C(N)=O)c(F)cc1Nc1ncc2c(n1)n(C1CC3(CC(CO)C3)C1)c(=O)n2C` (centres unmarked) [Compound 97, 2-Fluoro-4-((9-(6-(hydroxymethyl)spiro[3.3]heptan-2-yl)-7-methyl-8-oxo-8,9-dihydro-7H-purin-2-yl)amino)-5-methylbenzamide], the IC50 on DNA-PK kinase came to 0.68 nM.
On the same count and under the same terms, next, `Cc1cc(C#N)ccc1Nc1ncc2c(n1)n(C1CC3CC(O)CC3C1)c(=O)n2C` (centres unmarked) [Compound 98, 4-[(9-(5-hydroxy-octahydropentalen-2-yl)-7-methyl-8-oxo-8,9-dihydro-7H-purin-2-yl)amino]-3-methylbenzonitrile]: 4.01 nM; `Cc1cc(C(N)=O)c(F)cc1Nc1ncc2c(n1)n(C1C[C@@H]3COC[C@H]3C1)c(=O)n2C` [Compound 99, 2-fluoro-4-((9-((3aS,6aS)-hexahydro-1H-cyclopenta[c]furan-5-yl)-7-methyl-8-oxo-8,9-dihydro-7H-purin-2-yl)amino)-5-methylbenzamide]: 2.13 nM; `Cc1cc(C#N)ccc1Nc1ncc2c(n1)n(C1CC3COCC3C1)c(=O)n2C` (centres unmarked) [Compound 100, 4-((9-(hexahydro-1H-cyclopenta[c]furan-5-yl)-7-methyl-8-oxo-8,9-dihydro-7H-purin-2-yl)amino)-3-methylbenzonitrile]: 2.2 nM.
As to `Cc1cc(C#N)ccc1Nc1ncc2c(n1)n(C1CCS(=O)(=O)CC1)c(=O)n2C` [Compound 101, 4-((9-(1,1-dioxidotetrahydro-2H-thiopyran-4-yl)-7-methyl-8-oxo-8,9-dihydro-7H-purin-2-yl)amino)-3-methylbenzonitrile], on DNA-PK kinase, the IC50 was found to be 9.6 nM.
The same measure, in the same setting: next, `[2H]C([2H])([2H])C([2H])([2H])n1c(=O)n(C2CCOCC2)c2nc(Nc3cc(F)c(C(N)=O)cc3C)ncc21` [Compound 105, 4-((7-(ethyl-d5)-8-oxo-9-(tetrahydro-2H-pyran-4-yl)-8,9-dihydro-7H-purin-2-yl)amino)-2-fluoro-5-methylbenzamide]: 5.54 nM; `Cc1cc(C(N)=O)c(F)cc1Nc1ncc2c(n1)n(C1CCOCC1)c(=O)n2CC(F)F` [Compound 106, 4-((7-(2,2-difluoroethyl)-8-oxo-9-(tetrahydro-2H-pyran-4-yl)-8,9-dihydro-7H-purin-2-yl)amino)-2-fluoro-5-methylbenzamide]: 6.75 nM.
With `CCn1c(=O)n([C@H]2CCOC2)c2nc(Nc3cc(F)c(C(N)=O)cc3C)ncc21` [Compound 107, (S)((7-Ethyl-8-oxo-9-(tetrahydrofuran-3-yl)-8,9-dihydro-7H-purin-2-yl)amino)-2-fluoro-5-methylbenzamide], the IC50 on DNA-PK kinase came out at 10.1 nM.
The same measure, in the same setting: next, `Cc1cc(C(N)=O)c(F)cc1Nc1ncc2c(n1)n(C1CCOCC1)c(=O)n2CCF` [Compound 109, 2-Fluoro-4-((7-(2-fluoroethyl)-8-oxo-9-(tetrahydro-2H-pyran-4-yl)-8,9-dihydro-7H-purin-2-yl)amino)-5-methylbenzamide]: 5.54 nM.

The term IC50 denotes the concentration that gives 50% inhibition. The AUC is the area under the concentration-time curve, a measure of exposure. Low readings indicate low exposure, high ones high exposure. Broadly, the Cmax is the peak of the concentration-time curve.
